Test results from article PMC8533206 (Antioxidants, 2021).
Values joined by “and” are separate entries in the source; they are usually repeats but may differ in a detail not shown here. Equal entries are not always repeated. “Also recorded” adds a separate entry of the source.

Key:
[1] = biological target: T1, Human recombinant MAO-B (hMAO-B) (Homo sapiens, UniProt P27338); experiment: MAO-B inhibition assay (Amplex Red fluorescence, benzylamine substrate); assay type: biochemical; conditions: for IC50: five doses 10, 1, 0.1, 0.01, 0.001 μM, triplicate; for Selectivity Index (SI): ratio of IC50 (MAO-A)/IC50 (MAO-B); for inhibition at 10 µM / % Inhibition of MAO-B at 10 µM: single dose 10 µM
T1 construct: purchased Sigma-Aldrich; host or cells: insect cells
T1 sequence (P27338 1-520): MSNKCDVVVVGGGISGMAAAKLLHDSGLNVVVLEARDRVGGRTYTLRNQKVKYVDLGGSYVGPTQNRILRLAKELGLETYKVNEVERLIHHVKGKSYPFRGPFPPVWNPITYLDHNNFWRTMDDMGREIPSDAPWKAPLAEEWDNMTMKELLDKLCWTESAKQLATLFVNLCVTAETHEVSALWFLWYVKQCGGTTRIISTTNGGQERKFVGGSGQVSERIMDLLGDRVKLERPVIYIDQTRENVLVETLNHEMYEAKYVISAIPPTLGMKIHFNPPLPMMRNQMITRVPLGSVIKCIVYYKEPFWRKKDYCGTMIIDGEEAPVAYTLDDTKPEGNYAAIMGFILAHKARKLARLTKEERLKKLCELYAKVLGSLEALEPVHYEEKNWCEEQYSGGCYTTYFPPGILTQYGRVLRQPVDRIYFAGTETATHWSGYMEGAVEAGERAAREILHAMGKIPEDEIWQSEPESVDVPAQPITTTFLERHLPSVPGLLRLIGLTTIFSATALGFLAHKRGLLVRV
Procedure: The biological evaluation of the tested compounds over both MAO-A and MAO-B was performed following the previously reported method. The MAO activity was measured in relative fluorescence units (RFU) evoked by peroxidase-catalyzed oxidation of Amplex Red® to resorufin, in which H2O2 generated by MAO reaction was used as the electron donor. Human recombinant MAO-A (hMAO-A) and MAO-B (hMAO-B) enzymes expressed in insect cells were obtained from Sigma-Aldrich. The 2 μL of test compound in DMSO (final concentration: 1–10 μM) was treated with 98 μL of hMAO enzyme solution in 50 mM sodium phosphate buffer (pH 7.4, final protein amounts: ~1.25 μg protein/well for MAO-A and ~2.5 μg protein/well for MAO-B) on 96-well black plate and incubated for 15 min at 37 °C. Then, 100 μL of reaction working solution which is a mixed solution of 400 μM Amplex Red® (Cayman, final concentration: 200 μM), 2 U/mL horseradish peroxidase (Sigma-Aldrich, final concentration: 1 U/mL) and 2 mM substrate (p-tyramine for MAO-A, benzylamine for MAO-B, Sigma-Aldrich, final concentration: 1 mM) in 50 mM sodium phosphate buffer (pH 7.4) were added and incubated for 20 min at 37 °C in the dark. The fluorescent intensity was quantified using a microplate reader (SpectraMax®i3, Molecular Device) with an excitation at 545 nm and an emission at 590 nm. The 50% inhibitory concentrations (IC50) of compounds were determined as the mean ± S.E.M. in triplicate from the dose-response inhibition curves using SigmaPlot® 13.0 (Systat Software Inc., San Jose, CA, USA).

[2] = test system: PC12 cells; experiment: Rotenone-induced ROS generation in PC12 cells (H2-DCFDA); assay type: cell-based, rat; conditions: 10 μM compound, rotenone 1 μM 20 h
Procedure: The involvement of oxidative stress in the observed reduction in cell viability was investigated using the fluorescent dye H2-DCFDA as described previously. Briefly, cells were loaded with 10 μM H2-DCFDA for 30 min at 37 °C. Subsequently, cells were exposed for 4 h to 10 μM of test compounds followed by the addition of 50 μM 6-OHDA or 1 μM rotenone for 20 h, and fluorescence was measured spectrophotometrically at 488/520 nm in a microplate reader (SpectraMax M2e). N-acetylcysteine (NAC, 5 mM) was included as a […] control for oxidative stress.

[3] = biological target: T2, hMAO-B enzyme (Homo sapiens, UniProt P27338); experiment: Michaelis-Menten kinetic study of MAO-B inhibition mode; assay type: biochemical; conditions: for Type of MAO-B inhibition: Lineweaver-Burk plots intersect at y-axis; for Ki: benzylamine 0.065-4 mM, inhibitor 10, 30, 100 nM, read-out: Ki (inhibition constant), MAO-B
T2 construct: purchased Sigma-Aldrich; host or cells: insect cells
T2 sequence (P27338 1-520): T1 sequence (P27338 1-520)
Procedure: The type of MAO-B inhibition of the tested compounds was determined by Michaelis-Menten kinetic study following our recently reported study. The type of MAO-B inhibition of the tested compound(s) was determined by Michaelis–Menten kinetic study. The catalytic rates of the hMAO-B enzyme in the absence or in the presence of three different concentrations (10, 30, and 100 nM) of the tested compound were measured at seven different concentrations of the benzylamine (0.065, 0.125, 0.25, 0.5, 1, 2, and 4 mM). The corresponding progression curves and the Lineweaver-Burk plots were generated using GraphPad Prism 7 (GraphPad Software, Inc., La Jolla, CA, USA). The maximal velocity (Vmax), the Michaelis constant (Km), and the inhibition constant (Ki) were calculated using SigmaPlot® 13.0.
The initial rates of MAO-B inhibition in the absence and presence of the tested compound were measured at various concentrations (0.065, 0.125, 0.25, 0.5, 1, 2, and 4 mM) of benzylamine (a selective substrate for MAO-B). The corresponding progression curves and the Lineweaver-Burk plots were generated using GraphPad Prism 7. Both Michaelis–Menten and the Lineweaver-Burk plots were depicted in Figure 4 and Figure 5. […] The maximal velocity (Vmax), the Michaelis constant (Km), and the inhibition constant (Ki) were calculated using SigmaPlot®.

| Compound | IC50 [1] | Selectivity Index (SI) [1] | inhibition at 10 µM [1] [%] | Effect on rotenone-induced intracellular ROS production [2] | % Inhibition of MAO-B at 10 µM [1] [%] | Type of MAO-B inhibition [3] | Ki [3] [nM] |
| --- | --- | --- | --- | --- | --- | --- | --- |
| COC(=O)c1ccc2c(ccn2C(=O)c2ccc(Cl)c(Cl)c2)c1 [Compound 7b, Methyl 1-(3,4-dichlorobenzoyl)-1H-indole-5-carboxylate] | 330 nM and 328 nM | >305 | 84.1 | attenuated |  |  |  |
| O=C(Nc1ccc(I)cc1)c1ccc2[nH]ccc2c1 [Compound 8a, N-(4-iodophenyl)-1H-indole-5-carboxamide] | 27.4 nM | >3649 | > 99 | not effective | 99.3 ± 0.0 | competitive, and accordingly, reversible; also recorded: Competitive inhibition | 10.3 |
| O=C(Nc1ccc(Br)cc1)c1ccc2[nH]ccc2c1 [Compound 8b, N-(4-bromophenyl)-1H-indole-5-carboxamide] | 30 nM and 30.5 nM | >3278 | > 99 | attenuated | 99.4 ± 0.0 | competitive, and accordingly, reversible; also recorded: Competitive inhibition | 6.63 |
| O=C(Nc1ccc2c(c1)OCO2)c1ccc2[nH]ccc2c1 [Compound 8e, N-(benzo[d][1,3]dioxol-5-yl)-1H-indole-5-carboxamide] | 450 nM and 453 nM | >220 | 89.6 ± 0.4 | attenuated |  |  |  |
